Measurements as given in patent US20260201008A1, “SECRETIN-DERIVED GLP1R SELECTIVE AGONISTS” (GUBRA A/S, priority 2023, published 2026).
Read-outs that look alike come from different tables or passages of the source. Numbered stars: 1 amine (or outer) side, 2 acyl side, 3 side chain; on linkers, the order of the positions; unused ones are H or OH. Square brackets hold non-standard residues; d marks the D form. Side chains are listed from the residue outwards. Peptide text beside a SMILES is read from it. * marks the point of attachment. C20 diacid = O=C(O)CCCCCCCCCCCCCCCCCCC(=O)*; γGlu = O=C(O)[C@H](CCC(=O)[*:2])N[*:1]; AEEA = NCCOCCOCC(=O)O; Aib = CC(C)(N)C(=O)O

Experiments:
[1] = Turbidity of crude library peptides (absorbance at 600 nm); assay type: physicochemical; settings: Physical stability of peptides
In short: (§1)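 Crude peptides at 267 μM in 50 mM sodium acetate pH 4.0 or 50 mM sodium phosphate pH 7.0, pre-incubated 1-2 h at room temperature, then 4 μM final ThT added. Turbidity read first as A600. ThT fluorescence (ex 450/em 480 nm) read every 10 min for 72 h at 40° C, with 5 min shaking before each read; fibril formation = average emission.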

[2] = Fibril formation of crude library peptides (Thioflavin T); assay type: physicochemical; parameters: key: average ThT fluorescence emission at 480 nm (ex 450 nm), raw units; settings: Physical stability of peptides
In short: as §1

[3] = target: GLP1R (Homo sapiens, UniProt P43220); assay: hGLP1R potency, cAMP accumulation in CHO-K1 cells stably overexpressing hGLP1R; assay type: cell-based; parameters: host or cells: CHO-K1; settings: for EC50: cAMP accumulation; for SCTR EC50/GLP1R EC50 ratio: cAMP accumulation in CHO-K1 cells; for Selectivity: SCTR EC50/GLP1R EC50 ratio
Chain of GLP1R (P43220 24-463): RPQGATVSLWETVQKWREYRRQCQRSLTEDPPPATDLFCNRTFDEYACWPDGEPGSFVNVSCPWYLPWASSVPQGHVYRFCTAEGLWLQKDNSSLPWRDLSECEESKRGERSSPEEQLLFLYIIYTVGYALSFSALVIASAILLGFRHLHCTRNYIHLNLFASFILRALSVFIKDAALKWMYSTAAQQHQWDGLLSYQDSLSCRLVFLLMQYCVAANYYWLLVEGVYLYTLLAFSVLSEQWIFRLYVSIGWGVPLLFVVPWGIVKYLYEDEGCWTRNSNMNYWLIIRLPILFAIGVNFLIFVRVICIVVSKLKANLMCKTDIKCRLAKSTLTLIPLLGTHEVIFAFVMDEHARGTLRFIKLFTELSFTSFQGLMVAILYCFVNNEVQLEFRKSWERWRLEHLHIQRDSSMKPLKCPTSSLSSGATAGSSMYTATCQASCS
In short: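 CHO-K1 cells stably expressing hGLP1R (2000/well) in DPBS with 0.05% casein and 0.5 mM IBMX were stimulated 30 min at room temperature with graded compound doses; human GLP-1(7-36) served as positive control. cAMP was read by HTRF after 1 h; EC50 came from variable-slope sigmoid fits (purified peptides: 11-point 3-fold, n=2).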

[4] = target: SCTR (Homo sapiens, UniProt P47872); assay: hSCTR potency, cAMP accumulation in CHO-K1 cells stably overexpressing hSCTR; assay type: cell-based; parameters: alternatively Euroscreen ES-712-AF; FAST-0161L; host or cells: CHO-K1; settings: cAMP accumulation
Chain of SCTR (P47872 23-440): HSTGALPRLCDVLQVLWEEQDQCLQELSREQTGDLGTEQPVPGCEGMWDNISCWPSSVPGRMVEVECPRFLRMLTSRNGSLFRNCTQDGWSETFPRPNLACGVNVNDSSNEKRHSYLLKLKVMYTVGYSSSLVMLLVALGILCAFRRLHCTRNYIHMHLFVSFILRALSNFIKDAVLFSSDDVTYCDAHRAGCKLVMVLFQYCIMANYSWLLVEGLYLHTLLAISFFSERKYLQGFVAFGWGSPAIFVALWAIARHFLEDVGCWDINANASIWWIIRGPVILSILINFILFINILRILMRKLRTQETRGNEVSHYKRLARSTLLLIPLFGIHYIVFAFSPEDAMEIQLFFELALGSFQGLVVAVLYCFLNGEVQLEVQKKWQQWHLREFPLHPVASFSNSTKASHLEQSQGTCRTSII
In short: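 Cells plated at 2000/well in DPBS with 0.05% casein and 0.5 mM IBMX, stimulated 30 min at room temperature with graded compound doses; human secretin as positive control. cAMP read by TR-FRET after 1 h. Purified peptides tested at 11 3-fold dilutions, n=2; EC50 by variable-slope sigmoid fit.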

[5] = CHO-K1 cells overexpressing hGLP1R, read-out: hGLP1R pEC50 (converted)
[6] = selectivity for hGLP1R over hSCTR
[7] = CHO-K1 cells overexpressing hSCTR, read-out: hSCTR pEC50 (converted)
[8] = CHO-K1 cells overexpressing hGLP1R, read-out: pEC50 hGLPR1 (converted)
[9] = CHO-K1 cells overexpressing hSCTR, read-out: pEC50 hSCTR (converted)

| SMILES | Turbidity (pH 7) [1] | Fibril formation [2] | EC50 [3, 5] | SCTR EC50/GLP1R EC50 ratio [3, 6] | EC50 [4, 7] | Selectivity [3] | EC50 [3, 8] | EC50 [4, 9] | EC50 ([3]; CHO-K1 cells stably overexpressing hGLP1R, read-out: hGLP1R potency (pEC50) (converted)) | SCTR EC50/GLP1R EC50 ratio ([3]; selectivity ratio, hSCTR vs hGLP1R) | EC50 ([4]; CHO-K1 cells stably overexpressing hSCTR, read-out: hSCTR potency (pEC50) (converted)) |
| --- | --- | --- | --- | --- | --- | --- | --- | --- | --- | --- | --- |
| CC(C)C[C@H](NC(=O)[C@H](Cc1ccccc1)NC(=O)[C@H](CCCNC(=N)N)NC(=O)[C@H](CCC(N)=O)NC(=O)C(C)(C)NC(=O)[C@H](C)NC(=O)[C@H](C)NC(=O)C(C)(C)NC(=O)[C@H](CCC(=O)O)NC(=O)[C@H](CCCCNC(=O)COCCOCCNC(=O)COCCOCCNC(=O)CC[C@H](NC(=O)CCCCCCCCCCCCCCCCCCC(=O)O)C(=O)O)NC(=O)[C@H](CC(C)C)NC(=O)[C@H](CCCNC(=N)N)NC(=O)[C@H](CO)NC(=O)[C@@H](NC(=O)[C@H](CC(=O)O)NC(=O)[C@H](CO)NC(=O)[C@@H](NC(=O)[C@H](Cc1ccccc1)NC(=O)[C@@H](NC(=O)CNC(=O)[C@H](CCC(=O)O)NC(=O)C(C)(C)NC(=O)[C@@H](N)Cc1c[nH]cn1)[C@@H](C)O)[C@@H](C)O)C(C)C)C(=O)N[C@@H](CCC(=O)O)C(=O)N[C@@H](Cc1c[nH]cn1)C(=O)N[C@@H](CC(C)C)C(=O)N[C@H](C(N)=O)C(C)C [compound 64] (H-H[Aib]EGTFTSDVSRLK([AEEA-AEEA-γGlu-C20 diacid])E[Aib]AA[Aib]QRFLEHLV-NH2) | 0.09 | 14614 | – | – | – | 4808 | 0.0631 nM | 316 nM | – | – | – |
| CC[C@H](C)[C@H](NC(=O)[C@H](Cc1ccccc1)NC(=O)[C@H](CCCNC(=N)N)NC(=O)[C@H](CCC(N)=O)NC(=O)[C@H](CC(C)C)NC(=O)[C@H](C)NC(=O)[C@H](C)NC(=O)CNC(=O)[C@H](CCC(=O)O)NC(=O)[C@H](CC(C)C)NC(=O)[C@H](CC(C)C)NC(=O)CNC(=O)[C@H](CO)NC(=O)[C@H](Cc1ccc(O)cc1)NC(=O)[C@H](CC(=O)O)NC(=O)[C@H](CO)NC(=O)[C@@H](NC(=O)[C@H](Cc1ccccc1)NC(=O)[C@@H](NC(=O)CNC(=O)[C@H](CCC(=O)O)NC(=O)C(C)(C)NC(=O)[C@@H](N)Cc1c[nH]cn1)[C@@H](C)O)[C@@H](C)O)C(=O)N[C@@H](CCC(N)=O)C(=O)N[C@@H](Cc1c[nH]c2ccccc12)C(=O)N[C@@H](CC(C)C)C(=O)N[C@H](C(N)=O)C(C)C [compound 195] (H-H[Aib]EGTFTSDYSGLLEGAALQRFIQWLV-NH2) | 0.25 | 144234 | – | – | – | – | – | – | 0.0251 nM | 419 | 10 nM |
| CC(C)C[C@H](NC(=O)[C@H](Cc1ccccc1)NC(=O)[C@H](CCCNC(=N)N)NC(=O)[C@H](CCC(N)=O)NC(=O)[C@H](C)NC(=O)[C@H](C)NC(=O)[C@H](C)NC(=O)C(C)(C)NC(=O)[C@H](CCC(=O)O)NC(=O)[C@H](CCCCNC(=O)COCCOCCNC(=O)COCCOCCNC(=O)CC[C@H](NC(=O)CCCCCCCCCCCCCCCCCCC(=O)O)C(=O)O)NC(=O)[C@H](CC(C)C)NC(=O)[C@@H](NC(=O)[C@H](CO)NC(=O)[C@@H](NC(=O)[C@H](CC(=O)O)NC(=O)[C@H](CO)NC(=O)[C@@H](NC(=O)[C@H](Cc1ccccc1)NC(=O)[C@@H](NC(=O)CNC(=O)[C@H](CCC(=O)O)NC(=O)C(C)(C)NC(=O)[C@@H](N)Cc1c[nH]cn1)[C@@H](C)O)[C@@H](C)O)C(C)C)C(C)C)C(=O)N[C@@H](CCC(=O)O)C(=O)N[C@@H](Cc1c[nH]cn1)C(=O)N[C@@H](CC(C)C)C(=O)N[C@H](C(N)=O)C(C)C [compound 15] (H-H[Aib]EGTFTSDVSVLK([AEEA-AEEA-γGlu-C20 diacid])E[Aib]AAAQRFLEHLV-NH2) | 0.09 | 12385 | – | – | – | 3961 | 0.0794 nM | 316 nM | – | – | – |
| CC(C)C[C@H](NC(=O)[C@H](Cc1ccccc1)NC(=O)[C@H](CCCNC(=N)N)NC(=O)[C@H](CCC(N)=O)NC(=O)[C@H](CCC(=O)O)NC(=O)[C@H](C)NC(=O)[C@H](C)NC(=O)[C@H](CCC(=O)O)NC(=O)[C@H](CCC(=O)O)NC(=O)[C@H](CCCCNC(=O)COCCOCCNC(=O)COCCOCCNC(=O)CC[C@H](NC(=O)CCCCCCCCCCCCCCCCCCC(=O)O)C(=O)O)NC(=O)[C@H](CC(C)C)NC(=O)[C@H](Cc1ccccc1)NC(=O)[C@H](CO)NC(=O)[C@@H](NC(=O)[C@H](CC(=O)O)NC(=O)[C@H](CO)NC(=O)[C@@H](NC(=O)[C@H](Cc1ccccc1)NC(=O)[C@@H](NC(=O)CNC(=O)[C@H](CCC(=O)O)NC(=O)C(C)(C)NC(=O)[C@@H](N)Cc1c[nH]cn1)[C@@H](C)O)[C@@H](C)O)C(C)C)C(=O)N[C@@H](CCC(=O)O)C(=O)N[C@@H](Cc1c[nH]cn1)C(=O)N[C@@H](CC(C)C)C(=O)N[C@H](C(N)=O)C(C)C [compound 56] (H-H[Aib]EGTFTSDVSFLK([AEEA-AEEA-γGlu-C20 diacid])EEAAEQRFLEHLV-NH2) | 0.10 | 11030 | – | – | – | 179887 | 0.0398 nM | 7940 nM | – | – | – |

Results, then the compound that gave them:

| Turbidity (pH 7) [1] | Fibril formation [2] | EC50 [3, 5] | SCTR EC50/GLP1R EC50 ratio [3, 6] | EC50 [4, 7] | Selectivity [3] | EC50 [3, 8] | EC50 [4, 9] | EC50 ([3]; CHO-K1 cells stably overexpressing hGLP1R, read-out: hGLP1R potency (pEC50) (converted)) | SCTR EC50/GLP1R EC50 ratio ([3]; selectivity ratio, hSCTR vs hGLP1R) | EC50 ([4]; CHO-K1 cells stably overexpressing hSCTR, read-out: hSCTR potency (pEC50) (converted)) | SMILES |
| --- | --- | --- | --- | --- | --- | --- | --- | --- | --- | --- | --- |
| 0.11 | 4675 | 3.98 nM | 2342 | 10000 nM | – | – | – | – | – | – | CC[C@H](C)[C@H](NC(=O)[C@H](Cc1ccccc1)NC(=O)[C@H](CCCNC(=N)N)NC(=O)[C@H](CCC(N)=O)NC(=O)[C@H](CC(C)C)NC(=O)[C@H](C)NC(=O)[C@H](C)NC(=O)CNC(=O)[C@H](CCC(=O)O)NC(=O)[C@H](CC(C)C)NC(=O)[C@H](CC(C)C)NC(=O)C(C)(C)NC(=O)[C@H](CO)NC(=O)[C@@H]1CCCN1C(=O)[C@H](CC(=O)O)NC(=O)[C@H](CO)NC(=O)[C@@H](NC(=O)[C@H](Cc1ccccc1)NC(=O)[C@@H](NC(=O)CNC(=O)[C@H](CCC(=O)O)NC(=O)C(C)(C)NC(=O)[C@@H](N)Cc1c[nH]cn1)[C@@H](C)O)[C@@H](C)O)C(=O)N[C@@H](CCC(N)=O)C(=O)N[C@@H](Cc1c[nH]c2ccccc12)C(=O)N[C@@H](CC(C)C)C(=O)N[C@H](C(N)=O)C(C)C [compound 125] (H-H[Aib]EGTFTSDPS[Aib]LLEGAALQRFIQWLV-NH2) |
| 0.20 | 6144 | 15.8 nM | 1467 | 20000 nM | – | – | – | – | – | – | CC[C@H](C)[C@H](NC(=O)[C@H](Cc1ccccc1)NC(=O)[C@H](CCCNC(=N)N)NC(=O)[C@H](CCC(N)=O)NC(=O)[C@H](CC(C)C)NC(=O)[C@H](C)NC(=O)[C@H](C)NC(=O)CNC(=O)[C@H](CCC(=O)O)NC(=O)[C@H](CC(C)C)NC(=O)[C@H](CC(C)C)NC(=O)[C@H](Cc1ccc(O)cc1)NC(=O)[C@H](CO)NC(=O)[C@@H]1CCCN1C(=O)[C@H](CC(=O)O)NC(=O)[C@H](CO)NC(=O)[C@@H](NC(=O)[C@H](Cc1ccccc1)NC(=O)[C@@H](NC(=O)CNC(=O)[C@H](CCC(=O)O)NC(=O)C(C)(C)NC(=O)[C@@H](N)Cc1c[nH]cn1)[C@@H](C)O)[C@@H](C)O)C(=O)N[C@@H](CCC(N)=O)C(=O)N[C@@H](Cc1c[nH]c2ccccc12)C(=O)N[C@@H](CC(C)C)C(=O)N[C@H](C(N)=O)C(C)C [compound 128] (H-H[Aib]EGTFTSDPSYLLEGAALQRFIQWLV-NH2) |
| 0.12 | 4216 | 0.1 nM | 14710 | 1580 nM | – | – | – | – | – | – | CC[C@H](C)[C@H](NC(=O)[C@H](Cc1ccccc1)NC(=O)[C@H](CCCNC(=N)N)NC(=O)[C@H](CCC(N)=O)NC(=O)[C@H](CC(C)C)NC(=O)[C@H](C)NC(=O)[C@H](C)NC(=O)CNC(=O)[C@H](CCC(=O)O)NC(=O)[C@H](CC(C)C)NC(=O)[C@H](CC(C)C)NC(=O)CNC(=O)[C@H](CO)NC(=O)C(C)(C)NC(=O)[C@H](CC(=O)O)NC(=O)[C@H](CO)NC(=O)[C@@H](NC(=O)[C@H](Cc1ccccc1)NC(=O)[C@@H](NC(=O)CNC(=O)[C@H](CCC(=O)O)NC(=O)C(C)(C)NC(=O)[C@@H](N)Cc1c[nH]cn1)[C@@H](C)O)[C@@H](C)O)C(=O)N[C@@H](CCC(N)=O)C(=O)N[C@@H](Cc1c[nH]c2ccccc12)C(=O)N[C@@H](CC(C)C)C(=O)N[C@H](C(N)=O)C(C)C [compound 105] (H-H[Aib]EGTFTSD[Aib]SGLLEGAALQRFIQWLV-NH2) |
